Laboratory results taken from the NIST ThermoML archive (doi:10.1016/j.fluid.2014.04.038).
Where “and” joins values, the source holds several entries; their conditions need not be identical. Equal values may be shown once. ± gives the expanded uncertainty stated by the source.

Conditions: Hot wire method

Question: With `CCF` [fluoroethane] as the compound, how does the thermal conductivity (294.9 K, Liquid) read?
Answer: 0.1096 ± 0.0044 W/m/K

Question: What about the thermal conductivity (294.91 K, Liquid) of the same compound?
Answer: 0.1093 ± 0.0044 W/m/K

Question: What about the thermal conductivity (294.94 K, Liquid) of the same compound?
Answer: 0.1112 ± 0.0045 W/m/K and 0.1104 ± 0.0044 W/m/K

Question: What about the thermal conductivity (294.95 K, Liquid) of the same compound?
Answer: 0.111 ± 0.0045 W/m/K

Question: And the thermal conductivity (295.22 K, Liquid)?
Answer: 0.11 ± 0.0044 W/m/K and 0.1098 ± 0.0044 W/m/K

Question: What about the thermal conductivity (295.76 K, 779.2 kPa, Gas) of the same compound?
Answer: 0.01526 ± 0.00094 W/m/K

Question: And the thermal conductivity (295.78 K, 690.7 kPa, Gas)?
Answer: 0.0151 ± 0.00094 W/m/K

Question: What about the thermal conductivity (295.97 K, 520.7 kPa, Gas) of the same compound?
Answer: 0.01551 ± 0.00096 W/m/K

Question: What about the thermal conductivity (296.2 K, 275.3 kPa, Gas) of the same compound?
Answer: 0.01553 ± 0.00096 W/m/K

Question: And the thermal conductivity (297.07 K, 690.7 kPa, Gas)?
Answer: 0.01526 ± 0.00094 W/m/K

Question: And the thermal conductivity (297.24 K, 520.7 kPa, Gas)?
Answer: 0.01534 ± 0.00095 W/m/K

Question: What about the thermal conductivity (297.64 K, 275.3 kPa, Gas) of the same compound?
Answer: 0.01544 ± 0.00096 W/m/K

Question: And the thermal conductivity (298.46 K, 520.7 kPa, Gas)?
Answer: 0.01532 ± 0.00095 W/m/K

Question: What about the thermal conductivity (299.03 K, 275.3 kPa, Gas) of the same compound?
Answer: 0.01558 ± 0.00096 W/m/K

Question: And the thermal conductivity (304.39 K, Liquid)?
Answer: 0.1056 ± 0.0043 W/m/K

Question: What about the thermal conductivity (304.4 K, Liquid) of the same compound?
Answer: 0.1056 ± 0.0043 W/m/K

Question: And the thermal conductivity (304.41 K, Liquid)?
Answer: 0.1057 ± 0.0043 W/m/K

Question: And the thermal conductivity (304.67 K, Liquid)?
Answer: 0.1054 ± 0.0042 W/m/K

Question: And the thermal conductivity (304.68 K, Liquid)?
Answer: 0.1056 ± 0.0043 W/m/K and 0.1052 ± 0.0042 W/m/K

Question: And the thermal conductivity (305.07 K, Liquid)?
Answer: 0.1055 ± 0.0042 W/m/K

Question: What about the thermal conductivity (305.19 K, Liquid) of the same compound?
Answer: 0.1057 ± 0.0043 W/m/K and 0.1058 ± 0.0043 W/m/K

Question: What about the thermal conductivity (305.63 K, 712.7 kPa, Gas) of the same compound?
Answer: 0.01677 ± 0.001 W/m/K

Question: What about the thermal conductivity (305.93 K, 916.4 kPa, Gas) of the same compound?
Answer: 0.0163 ± 0.001 W/m/K

Question: What about the thermal conductivity (306.16 K, 227 kPa, Gas) of the same compound?
Answer: 0.01673 ± 0.001 W/m/K

Question: And the thermal conductivity (306.42 K, 1035 kPa, Gas)?
Answer: 0.01653 ± 0.001 W/m/K

Question: What about the thermal conductivity (306.59 K, 712.7 kPa, Gas) of the same compound?
Answer: 0.01627 ± 0.001 W/m/K

Question: And the thermal conductivity (306.71 K, 504.3 kPa, Gas)?
Answer: 0.01683 ± 0.001 W/m/K

Question: And the thermal conductivity (306.93 K, 916.4 kPa, Gas)?
Answer: 0.01663 ± 0.001 W/m/K

Question: What about the thermal conductivity (306.93 K, 1035 kPa, Gas) of the same compound?
Answer: 0.01725 ± 0.0011 W/m/K

Question: What about the thermal conductivity (306.97 K, 227 kPa, Gas) of the same compound?
Answer: 0.01654 ± 0.001 W/m/K

Question: And the thermal conductivity (307.36 K, 1035 kPa, Gas)?
Answer: 0.01661 ± 0.001 W/m/K

Question: And the thermal conductivity (307.57 K, 504.3 kPa, Gas)?
Answer: 0.01663 ± 0.001 W/m/K

Question: And the thermal conductivity (307.89 K, 227 kPa, Gas)?
Answer: 0.01643 ± 0.001 W/m/K

Question: What about the thermal conductivity (314.36 K, Liquid) of the same compound?
Answer: 0.1007 ± 0.004 W/m/K and 0.1002 ± 0.004 W/m/K

Question: And the thermal conductivity (314.38 K, Liquid)?
Answer: 0.1003 ± 0.004 W/m/K

Question: And the thermal conductivity (314.4 K, Liquid)?
Answer: 0.1003 ± 0.004 W/m/K and 0.1012 ± 0.0041 W/m/K

Question: What about the thermal conductivity (314.46 K, Liquid) of the same compound?
Answer: 0.1013 ± 0.0041 W/m/K

Question: And the thermal conductivity (314.68 K, Liquid)?
Answer: 0.1009 ± 0.0041 W/m/K

Question: And the thermal conductivity (314.69 K, Liquid)?
Answer: 0.1008 ± 0.004 W/m/K

Question: And the thermal conductivity (314.7 K, Liquid)?
Answer: 0.1003 ± 0.004 W/m/K

Question: And the thermal conductivity (314.71 K, Liquid)?
Answer: 0.1011 ± 0.0041 W/m/K and 0.1008 ± 0.004 W/m/K

Question: What about the thermal conductivity (314.72 K, Liquid) of the same compound?
Answer: 0.1006 ± 0.004 W/m/K

Question: What about the thermal conductivity (315.05 K, Liquid) of the same compound?
Answer: 0.1008 ± 0.004 W/m/K

Question: And the thermal conductivity (315.06 K, Liquid)?
Answer: 0.1007 ± 0.004 W/m/K

Question: What about the thermal conductivity (315.07 K, Liquid) of the same compound?
Answer: 0.1005 ± 0.004 W/m/K and 0.101 ± 0.0041 W/m/K and 0.1008 ± 0.004 W/m/K

Question: And the thermal conductivity (315.08 K, Liquid)?
Answer: 0.1002 ± 0.004 W/m/K

Question: And the thermal conductivity (315.53 K, 1227.4 kPa, Gas)?
Answer: 0.01838 ± 0.0011 W/m/K

Question: What about the thermal conductivity (315.63 K, 1202.4 kPa, Gas) of the same compound?
Answer: 0.01779 ± 0.0011 W/m/K

Question: And the thermal conductivity (315.79 K, 316.7 kPa, Gas)?
Answer: 0.01783 ± 0.0011 W/m/K

Question: What about the thermal conductivity (315.81 K, 1005.9 kPa, Gas) of the same compound?
Answer: 0.01828 ± 0.0011 W/m/K

Question: What about the thermal conductivity (315.87 K, 807.4 kPa, Gas) of the same compound?
Answer: 0.01738 ± 0.0011 W/m/K

Question: And the thermal conductivity (316.01 K, 1341.3 kPa, Gas)?
Answer: 0.01815 ± 0.0011 W/m/K

Question: And the thermal conductivity (316.27 K, 1202.4 kPa, Gas)?
Answer: 0.01803 ± 0.0011 W/m/K

Question: What about the thermal conductivity (316.4 K, 1005.9 kPa, Gas) of the same compound?
Answer: 0.01789 ± 0.0011 W/m/K

Question: What about the thermal conductivity (316.4 K, 1341.3 kPa, Gas) of the same compound?
Answer: 0.01835 ± 0.0011 W/m/K

Question: What about the thermal conductivity (316.53 K, 1162.6 kPa, Gas) of the same compound?
Answer: 0.01796 ± 0.0011 W/m/K

Question: What about the thermal conductivity (316.59 K, 807.4 kPa, Gas) of the same compound?
Answer: 0.01737 ± 0.0011 W/m/K

Question: And the thermal conductivity (316.83 K, 613.8 kPa, Gas)?
Answer: 0.01747 ± 0.0011 W/m/K

Question: What about the thermal conductivity (316.94 K, 1202.4 kPa, Gas) of the same compound?
Answer: 0.0181 ± 0.0011 W/m/K

Question: What about the thermal conductivity (317.06 K, 1341.3 kPa, Gas) of the same compound?
Answer: 0.01801 ± 0.0011 W/m/K

Question: What about the thermal conductivity (317.12 K, 1005.9 kPa, Gas) of the same compound?
Answer: 0.01811 ± 0.0011 W/m/K

Question: And the thermal conductivity (318.31 K, 316.7 kPa, Gas)?
Answer: 0.01787 ± 0.0011 W/m/K

Question: What about the thermal conductivity (321.99 K, 1292.4 kPa, Gas) of the same compound?
Answer: 0.01904 ± 0.0012 W/m/K

Question: What about the thermal conductivity (322.07 K, 1292.4 kPa, Gas) of the same compound?
Answer: 0.01921 ± 0.0012 W/m/K

Question: What about the thermal conductivity (322.37 K, 797.5 kPa, Gas) of the same compound?
Answer: 0.01858 ± 0.0011 W/m/K

Question: And the thermal conductivity (322.59 K, 797.5 kPa, Gas)?
Answer: 0.01847 ± 0.0011 W/m/K

Question: What about the thermal conductivity (323.36 K, 797.5 kPa, Gas) of the same compound?
Answer: 0.01857 ± 0.0011 W/m/K

Question: And the thermal conductivity (324.32 K, 1700.6 kPa, Gas)?
Answer: 0.01997 ± 0.0012 W/m/K

Question: What about the thermal conductivity (324.64 K, Liquid) of the same compound?
Answer: 0.09597 ± 0.0039 W/m/K and 0.09452 ± 0.0038 W/m/K

Question: What about the thermal conductivity (324.66 K, Liquid) of the same compound?
Answer: 0.09557 ± 0.0038 W/m/K

Question: What about the thermal conductivity (324.85 K, Liquid) of the same compound?
Answer: 0.09515 ± 0.0038 W/m/K

Question: What about the thermal conductivity (324.86 K, Liquid) of the same compound?
Answer: 0.09533 ± 0.0038 W/m/K

Question: What about the thermal conductivity (324.87 K, Liquid) of the same compound?
Answer: 0.09498 ± 0.0038 W/m/K

Question: And the thermal conductivity (324.97 K, 1700.6 kPa, Gas)?
Answer: 0.0202 ± 0.0013 W/m/K

Question: And the thermal conductivity (325.27 K, 1362.6 kPa, Gas)?
Answer: 0.01957 ± 0.0012 W/m/K

Question: What about the thermal conductivity (325.28 K, Liquid) of the same compound?
Answer: 0.09515 ± 0.0038 W/m/K

Question: What about the thermal conductivity (325.29 K, Liquid) of the same compound?
Answer: 0.09565 ± 0.0039 W/m/K

Question: And the thermal conductivity (325.3 K, Liquid)?
Answer: 0.09512 ± 0.0038 W/m/K

Question: And the thermal conductivity (325.45 K, 1700.6 kPa, Gas)?
Answer: 0.02011 ± 0.0012 W/m/K

Question: And the thermal conductivity (326.1 K, 1362.6 kPa, Gas)?
Answer: 0.01993 ± 0.0012 W/m/K

Question: And the thermal conductivity (326.61 K, 1095.3 kPa, Gas)?
Answer: 0.0197 ± 0.0012 W/m/K

Question: And the thermal conductivity (326.64 K, 968 kPa, Gas)?
Answer: 0.01935 ± 0.0012 W/m/K

Question: And the thermal conductivity (326.71 K, 798.3 kPa, Gas)?
Answer: 0.01946 ± 0.0012 W/m/K

Question: What about the thermal conductivity (326.98 K, 999.2 kPa, Gas) of the same compound?
Answer: 0.01933 ± 0.0012 W/m/K
